Test results taken from patent US8940724B2, “Quinoline derivitives and their uses” (Amgen Inc., priority 2009, dated 2015).

What follows are molecules tested against T1, PI3Kδ (Homo sapiens, UniProt O00329) (assay: PI3Kδ Alphascreen assay).
T1 construct: Full length p110 subunits of PI3k α, β and δ, N-terminally labeled with polyHis tag; polyHis (N); made in house; host or cells: Sf9 insect cells (baculovirus)
Format: biochemical

T1 sequence (O00329 whole entry): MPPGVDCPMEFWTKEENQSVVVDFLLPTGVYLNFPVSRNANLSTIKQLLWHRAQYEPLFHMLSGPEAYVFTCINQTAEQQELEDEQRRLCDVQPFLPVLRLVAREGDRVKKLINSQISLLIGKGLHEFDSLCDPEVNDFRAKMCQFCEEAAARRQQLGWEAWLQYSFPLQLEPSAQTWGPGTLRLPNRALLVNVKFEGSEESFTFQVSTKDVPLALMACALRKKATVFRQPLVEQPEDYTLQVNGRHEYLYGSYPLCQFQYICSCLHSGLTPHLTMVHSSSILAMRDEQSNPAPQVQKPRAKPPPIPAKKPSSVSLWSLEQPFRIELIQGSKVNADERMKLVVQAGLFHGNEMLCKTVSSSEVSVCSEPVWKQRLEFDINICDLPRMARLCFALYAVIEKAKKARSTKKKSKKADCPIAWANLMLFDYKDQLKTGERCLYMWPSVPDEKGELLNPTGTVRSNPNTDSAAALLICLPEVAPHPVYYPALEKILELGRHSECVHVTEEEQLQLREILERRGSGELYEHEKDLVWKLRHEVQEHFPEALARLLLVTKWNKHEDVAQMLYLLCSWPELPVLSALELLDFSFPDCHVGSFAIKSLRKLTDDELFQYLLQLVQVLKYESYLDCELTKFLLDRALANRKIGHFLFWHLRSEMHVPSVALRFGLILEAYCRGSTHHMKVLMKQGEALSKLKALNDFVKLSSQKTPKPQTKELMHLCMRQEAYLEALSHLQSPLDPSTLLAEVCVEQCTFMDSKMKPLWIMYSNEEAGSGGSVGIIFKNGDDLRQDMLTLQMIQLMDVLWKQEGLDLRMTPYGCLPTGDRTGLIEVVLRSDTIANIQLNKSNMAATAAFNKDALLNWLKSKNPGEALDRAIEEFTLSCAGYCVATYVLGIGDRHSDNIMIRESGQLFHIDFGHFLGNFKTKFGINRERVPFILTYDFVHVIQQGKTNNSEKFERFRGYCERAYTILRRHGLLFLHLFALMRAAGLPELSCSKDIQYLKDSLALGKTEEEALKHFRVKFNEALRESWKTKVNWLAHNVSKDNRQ
T1 sequence (P27986 whole entry partner): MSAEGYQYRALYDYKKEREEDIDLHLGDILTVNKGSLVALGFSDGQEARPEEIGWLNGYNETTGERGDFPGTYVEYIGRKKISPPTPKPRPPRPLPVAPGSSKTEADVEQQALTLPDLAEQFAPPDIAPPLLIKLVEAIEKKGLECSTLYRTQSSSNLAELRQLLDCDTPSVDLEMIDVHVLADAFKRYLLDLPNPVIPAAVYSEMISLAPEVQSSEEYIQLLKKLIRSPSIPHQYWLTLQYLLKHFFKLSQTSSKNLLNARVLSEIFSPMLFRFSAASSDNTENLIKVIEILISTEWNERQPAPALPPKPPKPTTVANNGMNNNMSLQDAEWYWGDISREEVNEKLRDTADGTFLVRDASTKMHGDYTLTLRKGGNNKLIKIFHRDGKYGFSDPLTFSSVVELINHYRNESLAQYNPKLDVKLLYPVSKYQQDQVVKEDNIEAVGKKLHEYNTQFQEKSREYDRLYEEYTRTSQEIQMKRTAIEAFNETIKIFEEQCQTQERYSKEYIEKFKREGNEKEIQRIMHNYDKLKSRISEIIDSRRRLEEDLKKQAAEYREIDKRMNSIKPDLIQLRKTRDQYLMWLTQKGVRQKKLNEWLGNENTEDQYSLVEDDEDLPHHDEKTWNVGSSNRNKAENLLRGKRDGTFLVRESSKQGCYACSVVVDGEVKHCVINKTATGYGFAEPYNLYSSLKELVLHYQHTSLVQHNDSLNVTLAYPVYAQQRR

| Ki [µM] | Structure (SMILES) |
| --- | --- |
| 0.716 | Cc1c(-c2ccccn2)nc2ncccc2c1Nc1cncc(N2CCOCC2)c1 [3-methyl-N-(5-(4-morpholinyl)-3-pyridinyl)-2-(2-pyridinyl)-1,8-naphthyridin-4-amine] |
| 0.00551 | Cc1c(-c2ccccn2)nc2cc(F)cc(F)c2c1Nc1cc(N2CCOCC2)cnc1-c1ccc(C#N)cc1 [4-(3-((5,7-difluoro-3-methyl-2-(2-pyridinyl)-4-quinolinyl)-amino)-5-(4-morpholinyl)-2-pyridinyl)benzonitrile] |
| 0.00237 | Cc1c(N2CCN(C(C)C)C(=O)C2)nc2cc(F)cc(F)c2c1Nc1cc(N2CCOCC2)cnc1N1CCOCC1 [4-(4-((2,5-di-4-morpholinyl-3-pyridinyl)amino)-5,7-difluoro-3-methyl-2-quinolinyl)-1-(1-methylethyl)-2-piperazinone] |
| 0.00129 | CCN1CCN(c2nc3cc(F)cc(F)c3c(Nc3cc(N4CCOCC4)cnc3N3CCOCC3)c2C)CC1=O [4-(4-((2,5-di-4-morpholinyl-3-pyridinyl)amino)-5,7-difluoro-3-methyl-2-quinolinyl)-1-ethyl-2-piperazinone] |
| 0.00184 | CCCN1CCN(c2nc3cc(F)cc(F)c3c(Nc3cc(N4CCOCC4)cnc3N3CCOCC3)c2C)CC1=O [4-(4-((2,5-di-4-morpholinyl-3-pyridinyl)amino)-5,7-difluoro-3-methyl-2-quinolinyl)-1-propyl-2-piperazinone] |
| 0.0816 | Cc1c(N2CCN(C(=O)N(C)C)CC2)nc2cc(F)cc(F)c2c1N(C(=O)N(C)C)c1cncc(N2CCOCC2)c1 [4-(4-((dimethylcarbamoyl)(5-(4-morpholinyl)-3-pyridinyl)-amino)-5,7-difluoro-3-methyl-2-quinolinyl)-N,N-dimethyl-1-piperazinecarboxamide] |
| 0.024 | Cc1c(N2CCN(C(C)C)C(=O)C2)nc2cc(F)cc(F)c2c1Nc1cncc(N2CCOCC2)c1 [4-(5,7-difluoro-3-methyl-4-((5-(4-morpholinyl)-3-pyridinyl)-amino)-2-quinolinyl)-1-(1-methylethyl)-2-piperazinone] |
| 0.0132 | CCN1CCN(c2nc3cc(F)cc(F)c3c(Nc3cncc(N4CCOCC4)c3)c2C)CC1=O [4-(5,7-difluoro-3-methyl-4-((5-(4-morpholinyl)-3-pyridinyl)-amino)-2-quinolinyl)-1-ethyl-2-piperazinone] |
| 0.00918 | CCCN1CCN(c2nc3cc(F)cc(F)c3c(Nc3cncc(N4CCOCC4)c3)c2C)CC1=O [4-(5,7-difluoro-3-methyl-4-((5-(4-morpholinyl)-3-pyridinyl)-amino)-2-quinolinyl)-1-propyl-2-piperazinone] |
| 0.0725 | Cc1c(N2CCN(C(=O)N(C)C)CC2)nc2cc(F)cc(F)c2c1Nc1cncc(N2CCOCC2)c1 [4-(5,7-difluoro-3-methyl-4-((5-(4-morpholinyl)-3-pyridinyl)-amino)-2-quinolinyl)-N,N-dimethyl-1-piperazinecarboxamide] |
| 0.0506 | Cc1c(N2CCN(C(=O)NC(C)C)CC2)nc2cc(F)cc(F)c2c1Nc1cncc(N2CCOCC2)c1 [4-(5,7-difluoro-3-methyl-4-((5-(4-morpholinyl)-3-pyridinyl)-amino)-2-quinolinyl)-N-(1-methylethyl)-1-piperazinecarboxamide] |
| 0.0248 | CCNC(=O)N1CCN(c2nc3cc(F)cc(F)c3c(Nc3cncc(N4CCOCC4)c3)c2C)CC1 [4-(5,7-difluoro-3-methyl-4-((5-(4-morpholinyl)-3-pyridinyl)-amino)-2-quinolinyl)-N-ethyl-1-piperazinecarboxamide] |
| 0.0165 | CNC(=O)N1CCN(c2nc3cc(F)cc(F)c3c(Nc3cncc(N4CCOCC4)c3)c2C)CC1 [4-(5,7-difluoro-3-methyl-4-((5-(4-morpholinyl)-3-pyridinyl)-amino)-2-quinolinyl)-N-methyl-1-piperazinecarboxamide] |
| 0.0544 | Cc1c(-c2ccccn2)nc2c(C#N)cccc2c1Nc1cc(N2CCOCC2)cnc1N1CCOCC1 [4-((2,5-di-4-morpholinyl-3-pyridinyl)amino)-3-methyl-2-(2-pyridinyl)-8-quinolinecarbonitrile] |
| 0.484 | Cc1c(-c2ccccn2)nc2cc(F)cc(F)c2c1Nc1ccc(C#N)c(N2CCOCC2)c1 [4-((5,7-difluoro-3-methyl-2-(2-pyridinyl)-4-quinolinyl)amino)-2-(4-morpholinyl)benzonitrile] |
| 0.00787 | COc1cncc(-c2cc(C#N)c(N3CCOCC3)cc2Nc2c(C)c(-c3ccccn3)nc3cc(F)cc(F)c23)c1 [4-((5,7-difluoro-3-methyl-2-(2-pyridinyl)-4-quinolinyl)amino)-5-(5-methoxy-3-pyridinyl)-2-(4-morpholinyl)benzonitrile] |
| 0.233 | COc1cncc(-c2ncc(N3CCOCC3)cc2Nc2c(C)c(-c3cc(C)ccn3)nc3c(C#N)cccc23)c1 [4-((5′-methoxy-5-(4-morpholinyl)-2,3′-bipyridin-3-yl)amino)-3-methyl-2-(4-methyl-2-pyridinyl)-8-quinolinecarbonitrile] |
| 0.15 | COc1cc(-c2nc3cc(F)cc(F)c3c(Nc3cncc(N4CCOCC4)c3)c2C)ccn1 [5,7-difluoro-2-(2-methoxy-4-pyridinyl)-3-methyl-N-(5-(4-morpholinyl)-3-pyridinyl)-4-quinolinamine] |
| 0.0544 | Cc1c(N2CCN(C(=O)c3ncc[nH]3)CC2)nc2cc(F)cc(F)c2c1Nc1cncc(N2CCOCC2)c1 [5,7-difluoro-2-(4-(1H-imidazol-2-ylcarbonyl)-1-piperazinyl)-3-methyl-N-(5-(4-morpholinyl)-3-pyridinyl)-4-quinolinamine] |
| 0.0664 | Cc1c(N2CCN(S(=O)(=O)c3ccccc3F)CC2)nc2cc(F)cc(F)c2c1Nc1cncc(N2CCOCC2)c1 [5,7-difluoro-2-(4-((2-fluorophenyl)sulfonyl)-1-piperazinyl)-3-methyl-N-(5-(4-morpholinyl)-3-pyridinyl)-4-quinolinamine] |
| 0.0611 | Cc1c(N2CCN(S(=O)(=O)c3cccc(F)c3)CC2)nc2cc(F)cc(F)c2c1Nc1cncc(N2CCOCC2)c1 [5,7-difluoro-2-(4-((3-fluorophenyl)sulfonyl)-1-piperazinyl)-3-methyl-N-(5-(4-morpholinyl)-3-pyridinyl)-4-quinolinamine] |
| 0.00291 | Cc1c(-c2cc(F)ccc2S(C)(=O)=O)nc2cc(F)cc(F)c2c1Nc1cncc(N2CCOCC2)c1 [5,7-difluoro-2-(5-fluoro-2-(methylsulfonyl)phenyl)-3-methyl-N-(5-(4-morpholinyl)-3-pyridinyl)-4-quinolinamine] |
| 0.0374 | COc1cncc(-c2nc3cc(F)cc(F)c3c(Nc3cncc(N4CCOCC4)c3)c2C)c1 [5,7-difluoro-2-(5-methoxy-3-pyridinyl)-3-methyl-N-(5-(4-morpholinyl)-3-pyridinyl)-4-quinolinamine] |
| 0.00389 | Cc1c(-c2ccccc2[S@+](C)[O-])nc2cc(F)cc(F)c2c1Nc1cncc(N2CCOCC2)c1 [5,7-difluoro-3-methyl-2-(2-((S)-methylsulfinyl)phenyl)-N-(5-(4-morpholinyl)-3-pyridinyl)-4-quinolinamine] |

| Structure (SMILES) | Ki [µM] |
| --- | --- |
| Cc1c(-c2ccccn2)nc2cc(F)cc(F)c2c1Nc1cc(N2CCOCC2)cnc1-c1ccc(O)cc1 [4-(3-((5,7-difluoro-3-methyl-2-(2-pyridinyl)-4-quinolinyl)-amino)-5-(4-morpholinyl)-2-pyridinyl)phenol] | 0.000285 |
